Results taken from ChEMBL document CHEMBL4699590, “Discovery of SARxxxx92, a pan-PIM kinase inhibitor, efficacious in a KG1 tumor model” (Bioorg Med Chem Lett, 2020).
≈ marks a conversion by molar mass, not a printed value.

What was measured:
[1] = test system: KG-1; assay: Cytotoxicity against human KG-1 cells assessed as reduction in cell viability; type: functional, cell-based
[2] = Permeability in human Caco2/TC7 cells at 5 uM; type: ADME, cell-based; settings: Caco-2, read-out: permeability
[3] = Inhibition of PIM in human KG-1 cells assessed as reduction in PS6 level; type: cell-based
[4] = molecular target: Voltage-gated inwardly rectifying potassium channel KCNH2 (Homo sapiens, UniProt Q12809); assay: Inhibition of human ERG by patch clamp assay
[5] = molecular target: Serine/threonine-protein kinase pim-2 (Homo sapiens, UniProt Q9P1W9); assay: Inhibition of PIM2 (unknown origin)
[6] = Clearance in rat at 3 mg/kg, iv; type: ADME, organism-based; settings: in vivo
[7] = Free plasma concentration in human KG-1 tumor bearing mouse at 25 mg/kg, po measured after 8 hrs; type: ADME, organism-based; settings: in vivo
[8] = Half life in rat at 3 mg/kg, iv; type: ADME, organism-based; settings: in vivo
[9] = Free plasma concentration in human KG-1 tumor bearing mouse at 25 mg/kg, po measured after 24 hrs; type: ADME, organism-based; settings: in vivo
[10] = Free tumor concentration in human KG-1 tumor bearing mouse at 25 mg/kg, po measured after 8 hrs; type: ADME, organism-based, Neoplasm; settings: in vivo
[11] = Oral bioavailability in rat at 10 mg/kg; type: ADME, organism-based; settings: in vivo
[12] = Free tumor concentration in human KG-1 tumor bearing mouse at 25 mg/kg, po measured after 24 hrs; type: ADME, organism-based, Neoplasm; settings: in vivo
[13] = Cmax in rat at 3 mg/kg, iv; type: ADME, organism-based; parameters: route intravenous, dose 3 mg/kg; settings: in vivo
[14] = Thermodynamic solubility in pH 7.4 buffer; type: physicochemical; settings: read-out: Therm_solubility
[15] = Unbound fraction in human KG-1 tumor bearing mouse plasma at 25 mg/kg, po; type: ADME, organism-based
[16] = test system: KG-1; assay: Antitumor against human KG-1 cells xenografted in mouse assessed as tumor growth inhibition at 150 mg/kg, po administered BID for 3 weeks; type: functional; settings: KG-1, po, 504 h, read-out: TGI
[17] = test system: KG-1; assay: Antitumor against human KG-1 cells xenografted in mouse assessed as tumor volume at 150 mg/kg, po administered BID for 3 weeks relative to control; type: functional
[18] = Volume of distribution at steady state in rat at 3 mg/kg, iv; type: ADME, organism-based; settings: in vivo, read-out: Vdss
[19] = test system: KG-1; assay: Antitumor activity against human KG-1 tumor bearing mouse assessed as reduction BAD phosphorylation at 25 mg/kg, po measured after 8 hrs; type: functional; settings: KG-1, po
[20] = test system: KG-1; assay: Antitumor against human KG-1 cells xenografted in mouse assessed as tumor volume at 50 mg/kg, po administered BID for 3 weeks relative to control; type: functional
[21] = test system: KG-1; assay: Antitumor against human KG-1 cells xenografted in mouse assessed as tumor volume at 100 mg/kg, po administered BID for 3 weeks relative to control; type: functional
[22] = Toxicity in mouse xenografted with human KG-1 cells assessed as reduction in body weight at 50 to 150 mg/kg, po administered bid for 3 weeks; type: organism-based; parameters: scale not given: the % may be the effect or the level left; settings: in vivo, 504 h, dose 50-150 mg/kg
[23] = test system: KG-1; assay: Antitumor activity against human KG-1 tumor bearing mouse assessed as reduction BAD phosphorylation at 25 mg/kg, po measured after 24 hrs; type: functional; settings: KG-1, po

Chain of Serine/threonine-protein kinase pim-2 (Q9P1W9 whole entry): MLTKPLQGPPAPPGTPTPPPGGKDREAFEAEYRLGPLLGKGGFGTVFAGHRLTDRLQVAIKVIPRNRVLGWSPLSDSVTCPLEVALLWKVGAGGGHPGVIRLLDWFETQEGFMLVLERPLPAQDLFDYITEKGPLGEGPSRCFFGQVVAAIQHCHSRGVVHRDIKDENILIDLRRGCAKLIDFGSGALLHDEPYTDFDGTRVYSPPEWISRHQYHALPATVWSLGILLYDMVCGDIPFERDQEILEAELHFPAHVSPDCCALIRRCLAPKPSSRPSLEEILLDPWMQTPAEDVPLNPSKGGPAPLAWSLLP
Chain of Voltage-gated inwardly rectifying potassium channel KCNH2 (Q12809 whole entry): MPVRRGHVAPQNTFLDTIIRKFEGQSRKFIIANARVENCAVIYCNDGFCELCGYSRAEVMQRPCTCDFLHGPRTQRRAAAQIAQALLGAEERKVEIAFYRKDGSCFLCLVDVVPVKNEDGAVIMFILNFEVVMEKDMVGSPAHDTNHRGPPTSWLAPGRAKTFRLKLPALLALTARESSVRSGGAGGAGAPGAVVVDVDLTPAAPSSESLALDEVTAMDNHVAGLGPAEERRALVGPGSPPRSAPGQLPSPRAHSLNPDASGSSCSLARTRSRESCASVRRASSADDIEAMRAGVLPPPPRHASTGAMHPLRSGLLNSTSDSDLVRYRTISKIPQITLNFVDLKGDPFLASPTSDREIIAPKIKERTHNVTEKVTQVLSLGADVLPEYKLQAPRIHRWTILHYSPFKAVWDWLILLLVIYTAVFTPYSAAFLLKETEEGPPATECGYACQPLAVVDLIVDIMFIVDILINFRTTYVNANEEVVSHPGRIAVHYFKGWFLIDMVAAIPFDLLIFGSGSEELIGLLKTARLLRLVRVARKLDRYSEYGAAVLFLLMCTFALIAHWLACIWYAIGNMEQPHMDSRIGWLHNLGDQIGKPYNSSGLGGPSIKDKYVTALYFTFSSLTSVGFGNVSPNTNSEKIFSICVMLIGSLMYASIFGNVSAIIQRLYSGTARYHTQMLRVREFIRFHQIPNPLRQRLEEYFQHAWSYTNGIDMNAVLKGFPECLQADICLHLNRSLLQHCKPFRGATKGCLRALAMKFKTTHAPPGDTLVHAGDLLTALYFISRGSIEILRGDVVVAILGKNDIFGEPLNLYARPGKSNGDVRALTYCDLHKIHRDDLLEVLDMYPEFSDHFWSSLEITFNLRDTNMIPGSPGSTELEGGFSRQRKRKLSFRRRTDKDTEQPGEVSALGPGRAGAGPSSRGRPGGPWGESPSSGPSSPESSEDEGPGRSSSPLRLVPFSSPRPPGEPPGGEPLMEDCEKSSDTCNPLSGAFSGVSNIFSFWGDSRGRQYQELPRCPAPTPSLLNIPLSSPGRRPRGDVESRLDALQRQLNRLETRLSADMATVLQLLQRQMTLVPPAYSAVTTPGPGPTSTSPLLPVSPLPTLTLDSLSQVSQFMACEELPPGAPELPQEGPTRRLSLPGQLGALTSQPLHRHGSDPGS

Compound: Cc1cn([C@@H](C)[C@H]2CCNC[C@H]2F)c2nc(C(N)=O)cc(Cl)c12 (racemic)
- EC50 [1]: 17 nM
- Papp at 5 µM [2]: 1.5 ×10⁻⁶ cm/s
- EC50 [3]: 6 nM

Compound: Cc1cn([C@H](C)[C@]2(F)CCNC2)c2nc(C(N)=O)cc(Cl)c12 (stereo in doubt)
- EC50 [1]: 9070 nM
- IC50 [4]: 30000 nM
- Papp at 5 µM [2]: 1.8 ×10⁻⁶ cm/s
- IC50 [5]: 515 nM
- EC50 [3]: 2030 nM

Compound: Cc1cn([C@@H](C)[C@]2(F)CCNC2)c2nc(C(N)=O)cc(Cl)c12 (stereo in doubt)
- EC50 [1]: 61 nM
- clearance [6]: 75 mL/min/kg
- IC50 [4]: 22000 nM
- Cp(f) [7]: 240 nM
- half-life [8]: 2.7 h
- Papp at 5 µM [2]: 2.3 ×10⁻⁶ cm/s
- Cp(f) [9]: 54 nM
- Drug uptake(free) [10]: 720 nM
- bioavailability [11]: 59%
- Drug uptake(free) [12]: 120 nM
- Cmax [13]: 174 ng/mL
- IC50 [5]: 6 nM
- solubility thermodynamic [14]: 6.8 mM (≈ 2210 µg/mL)
- fraction unbound [15]: 0.055
- inhibition in vivo at 150 mg/kg [16]: 87%
- EC50 [3]: 71 nM
- T/C [17]: 13.1%
- Vd [18]: 9.9 L/kg
- inhibition in vivo at 25 mg/kg [19]: 65%
- T/C [20]: 56.1%
- T/C [21]: 50.7%
- Activity [22]: > 15%
- inhibition in vivo at 25 mg/kg [23]: 55%

Compound: Cc1cn([C@@H](C)[C@@]2(F)CCNC2)c2nc(C(N)=O)cc(Cl)c12 (stereo in doubt)
- EC50 [1]: 808 nM
- IC50 [5]: 160 nM
- EC50 [3]: 876 nM

Compound: Cc1cn([C@H](C)[C@@]2(F)CCNC2)c2nc(C(N)=O)cc(Cl)c12 (stereo in doubt)
- EC50 [1]: 7230 nM
- IC50 [5]: 1780 nM

Compound: Cc1cn([C@H](C)[C@H]2CCNC[C@@H]2F)c2nc(C(N)=O)cc(Cl)c12 (racemic)
- EC50 [1]: 51 nM
- Papp at 5 µM [2]: 7.1 ×10⁻⁶ cm/s
- EC50 [3]: 52 nM

Compound: Cc1cn([C@H](C)[C@@H]2CCNC[C@H]2F)c2nc(C(N)=O)cc(Cl)c12 (racemic)
- EC50 [1]: 20 nM
- Papp at 5 µM [2]: 12 ×10⁻⁶ cm/s
- EC50 [3]: 24 nM

Compound: Cc1cn([C@@H](C)[C@@H]2CCNC[C@@H]2F)c2nc(C(N)=O)cc(Cl)c12 (racemic)
- EC50 [1]: 195 nM
- Papp at 5 µM [2]: 1.7 ×10⁻⁶ cm/s
- EC50 [3]: 115 nM
